Test results from PMC9882606, “Rationally designed inhibitors of the Musashi protein-RNA interaction by hotspot mimicry” (Research Square, 2023).

Tests used:
MSI1 RRM1 [1] = target: T1, MSI1 RRM1 (Homo sapiens, UniProt O43347); experiment: Fluorescence polarization (FP) competition assay with fluorescein-labeled RNA; type: binding; settings: for inhibition in FP competition assay: MSI1 RRM1, result in words
T1 sequence (O43347 20-110 limits assumed): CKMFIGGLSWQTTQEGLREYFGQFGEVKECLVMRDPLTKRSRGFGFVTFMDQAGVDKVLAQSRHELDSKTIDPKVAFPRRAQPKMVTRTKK
Text: Figure 1: The hotspot mimicry approach. […] (A) The structure of the MSI1 / RNA complex. The RNA (sticks) wraps around the protein (spheres). Two adjacent bases, A106 and G107 (magenta), are buried in a shallow pocket on the protein surface. (B) An interaction map is generated from the RNA in the complex, by collecting deeply buried bases (magenta) and atoms involved in intermolecular hydrogen bonds (acceptors shown in yellow, donors in green). […] Positive values indicate diminished binding when a given base is replaced with an abasic site, showing that A106 and G107 contribute more than the other nearby bases to the binding affinity of this interaction. (E) The hotspot pharmacophore serves as a template for ligand-based screening, searching for compounds that would mimic the three-dimensional features of the pharmacophore. The screen led to the identification of compound R12, which mimics the geometry of the rings and provides three of the four desired hydrogen bonding groups. (F) R12 competes with fluorescein-labeled RNA for MSI1 binding, as observed through a fluorescence polarization assay. […] (G) Superposition of the hotspot pharmacophore back onto the protein structure illustrates the interactions that should be captured by an ideal ligand: stacking against three aromatic sidechains, and four intermolecular hydrogen bonds.
We applied our “hotspot mimicry” approach to the structure of Musashi-1 RRM1 bound to cognate RNA [54], and found a single hotspot pharmacophore derived from an adjacent pair of buried bases, Adenine106 and Guanine107 (Figure 1a). […] This pharmacophore captures both the aromatic stacking and the hydrogen bonding of the RNA hotspot through its inclusion of ring moieties and donor/acceptor positions, respectively (Figure 1c). To test whether these two particular bases indeed serve as a hotspot of the MSI1 RRM1 / RNA interaction, we used a fluorescence polarization (FP) competition assay (see Supporting Methods) to measure the binding affinity of RNA variants that maintained the backbone but lacked individual bases. […] In contrast, introduction of an abasic site at other nearby positions affected binding much less. Confirmation that A106 and G107 serve as hotspot bases of this interaction thus provided experimental evidence supporting the pharmacophore selection from our computational approach.

[2] = Solubility as noted during FP testing; type: physicochemical; settings: result in words
Text: We then used this pharmacophore as a template for virtual screening. The 12 top-scoring hits identified from the resulting screen could each be classified into one of three diverse chemotypes (Figure S1). While none of these scaffolds bear any obvious resemblance in chemical structure to a nucleobase pair, the overlap in three-dimensional shape and hydrogen bonding potential between the hotspot pharmacophore and the modeled conformation of each compound is immediately evident. Despite this strong similarity, none of the 12 hit compounds recapitulated all four of the polar groups included in the hotspot pharmacophore, and only three hit compounds matched to three of the polar groups: R12 (Figure 1e), its close analog R4, and R7 (Figure S2).
(§1) Out of concern that R12–7’s activity may be associated with compound aggregation, we elected to continue with optimization of R12–8 (Figure 2b).

MSI2 [3] = experiment: Immunoblot of cellular MSI2 protein levels in PC9 cells; type: cell-based, human; settings: PC9, 20 μM compound for 1, 3, 6, 24, or 48 hours
Text: To explore the effect of these MSI2 inhibitors in a cancer-relevant cellular context, we selected two MSI2-dependent cancer cell lines: non-small cell lung cancer cell line PC9 and leukemia cell line K562 [73, 98–101]. Upon treatment of PC9 cells with Ro, R12–8–44–3, or negative control R12-neg, we found at multiple time points that cellular MSI2 protein levels were unchanged (Figure 6a). To confirm target engagement, we therefore adapted the cellular thermal shift assay (CETSA). To determine experimental conditions, we first harvested cells and incubated at increasing temperatures; we then removed aggregated protein by centrifugation and used Western blotting to probe the amount of MSI2 remaining in the soluble fraction (Figure 6b, Figure S9). Having established 49 °C as the midpoint of the transition under these (non-equilibrium) conditions, we then treated cells with our candidate MSI2 inhibitor for 3 h, and heated to 49 °C.
Figure 6: Direct cellular engagement of MSI2 interaction by R12–44–3. (A) Immunoblot from PC9 cells treated with Ro (positive control), R12-neg (negative control), or R12–8–44–3. Cells were treated with 20 μM compound for 1, 3, 6, 24, or 48 hours. MSI2 protein abundance was then quantified and normalized to untreated sample. One representative image is shown; quantification is presented as the average ± S.E.M. from 3 independent replicates. (B) Thermal-induced aggregation of cellular MSI2 in the PC9 cell line. Cells were briefly incubated at temperatures between 40 °C to 67 °C, then centrifuged and the amount of MSI2 remaining in the soluble fraction was quantified by Western blotting. […] One representative image is shown; quantification is presented as the average ± S.E.M. from 3 independent replicates, normalized first to beta-actin and then to DMSO control. […] One representative image is shown; quantification is presented as the average ± S.E.M. from 3 independent replicates, normalized first to beta-actin and then to DMSO control. […]

PC9 cells [4] = experiment: CellTiter-Blue cell viability, PC9; type: cell-based, human; settings: PC9, 3 days, dose-response
Method: (§2) Figure 7: Cellular characterization of MSI2 inhibition by R12–8–44–3. (A) Quantification of mRNA immunoprecipitation (RIP) results. Cells were treated with 10 μM of the indicated compounds for 8 hours. After immunoprecipitation with anti-MSI2, mRNA targets were quantified. The amount of each target mRNA in the pulldown was calculated relative to the input, and results from all targets were normalized to PTP4A1. Treating cells with R12–8–44–3 disrupted the interaction with all four cognate mRNAs (PTP4A, SMAD3, EGFR, and MSI2). Data are presented as the average ± S.E.M. from at least 3 independent replicates. […] Cells were treated with indicated compounds at two concentrations (5 μM and 20 μM) for 48 hours, then protein levels of relevant MSI2 targets were determined (EGFR, SMAD3, and MSI2). One representative image is shown; quantification is presented as the average ± S.E.M. from at least 3 independent replicates, normalized first to beta-actin and then to DMSO-treated cells. (C) Cell viability dose-response quantified by CellTiter-Blue after 3 days (left) and cell proliferation with 10μM of compounds quantified by clonogenic assay after 7 days (right). […] (D) Cell viability quantified by clonogenic assay of PC9 cell line after 7-day treatment with 2 nM osimertinib (osi alone), osimertinib with 10 μM R12–8–44–3, or osimertinib with 10 μM R12-neg. […]

PC9 cells [5] = experiment: Clonogenic assay, PC9; type: cell-based, human; settings: PC9, 10 μM, 7 days
Method: as §2

MSI1/MSI2 = tested on: MSI1/MSI2; parameters: method as in PMID 31217428, PMID 36167829; settings: in vitro; cited from earlier work
leukemia/lymphoma models = tested on: leukemia/lymphoma models; parameters: method as in PMID 31217428, PMID 36167829; settings: in vivo leukemia/lymphoma models; cited from earlier work
MSI2 [6] = target: MSI2 (Homo sapiens, UniProt Q96DH6); experiment: MS2-TRAP aptamer pull-down reporter assay in HEK293 cells; type: cell-based; parameters: HEK293 cells (with a high baseline MSI2 expression); endogenous in cells; host or cells: HEK293; settings: HEK293, 24 h treatment; for total amount of MSI2 in cells: input prior to IP; for amount of Luc mRNA in cells (qPCR): prior to IP
Sequence of MSI2 (Homo sapiens, UniProt Q96DH6) (Q96DH6 whole entry): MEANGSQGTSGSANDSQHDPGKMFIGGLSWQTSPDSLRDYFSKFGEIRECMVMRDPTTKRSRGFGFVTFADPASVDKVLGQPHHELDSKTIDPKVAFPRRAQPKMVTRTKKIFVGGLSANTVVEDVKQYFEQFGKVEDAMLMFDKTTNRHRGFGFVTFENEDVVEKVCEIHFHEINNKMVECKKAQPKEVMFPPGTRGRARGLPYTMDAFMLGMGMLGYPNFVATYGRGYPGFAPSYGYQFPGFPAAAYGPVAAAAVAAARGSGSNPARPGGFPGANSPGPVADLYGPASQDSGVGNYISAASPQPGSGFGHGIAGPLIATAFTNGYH
Text: Figure 5: Characterization of R12–8–44–3 in a reporter cell line. […] As a positive control, Ro 08–2750 (aka “Ro”) is also included in these studies. (B) Schematic of reporter assay. HEK293 cells are transfected with a plasmid encoding an arbitrary gene (Luc) with UAG repeats (to recruit MSI2) and MS2 repeats (for pulldown) appended to its 3’ UTR. The same vector also includes FLAG-labeled MS2-BP. Upon anti-FLAG immunoprecipitation (IP), the FLAG-labeled MS2-BP allows purification of the Luc mRNA along with any associated factors. (C) Prior to IP, cells express Luc mRNA to a similar extent irrespective of whether they were treated with DMSO, R12-neg, R12–8–44–3, or Ro. (D) Prior to IP (“input”), MSI2 is detected in all samples to a similar extent (as is KU-86 loading control). After pulldown of Luc mRNA, MSI2 is found associated with the mRNA in cells treated with DMSO or R12-neg, but not in cells that had been treated with R12–8–44–3 or Ro. Representative image is shown; quantification is plotted as the average of 2 independent experiments ± S.E.M. Statistical analysis was performed using unpaired two tailed t-test, with * indicating p<0.05. Uncropped Western blots from this experiment are provided as Figure S8.
To determine whether inhibition of MSI1/MSI2 by R12–8–44–3 would apply in a cellular context, we adapted an aptamer pull-down reporter assay that we previously used to validate candidate Musashi target genes. Briefly, our approach is a variation of the MS2-TRAP (MS2-tagged RNA affinity purification) method, which uses bacteriophage protein MS2-BP to extract from cells any factors that associate with RNAs containing a specific stem-loop structure (MS2) from the phage genome. Here, we designed an mRNA construct that would include a series of MS2 hairpins and also a MSI2 recognition sequence. We transfected this construct into cells that also express FLAG-tagged MS2-BP (a protein unrelated to MSI2). By affinity purification using the FLAG tag, proteins bound to the designed mRNA can be extracted from cells.
To test for inhibition of MSI2 in cells, we transfected HEK293 cells (with a high baseline MSI2 expression), with the pMS2-LUC-3’UTR from our previous studies. This vector appends onto the 3’UTR of an arbitrary gene (in this case luciferase) two key elements: UAG-motifs comprising a MSI2 recognition sequence, and a series of five MS2 hairpins. The same vector also encodes the FLAG-MS2-BP fusion needed for affinity purification (Figure 5b). Cells were then treated with each compound of interest for 24 h, and then the cells were subsequently harvested and used for anti-FLAG immunoprecipitation. […] Using qPCR we evaluated the amount of Luc mRNA in cells treated with R12–8–44–3, R12-neg, or Ro, and found this to be unchanged (Figure 5c).

MSI1 RRM1 [7] = target: T1, MSI1 RRM1; experiment: Differential Scanning Fluorimetry (DSF); type: binding; settings: increasing compound dose
Text: as §1
To further characterize R12–8–44–3, we applied differential scanning fluorimetry (DSF) as an orthogonal secondary assay. […] While this could be a sign of apparent inhibition occurring through aggregation, there are also legitimate inhibitors that reduce their target protein’s melting temperature. An alternate explanation could simply be that MSI1’s folding landscape is not simply two-state, and that a partially-folded intermediate stabilized by R12–8–44–3 affects the unfolding transition.

| Compound | inhibition in FP competition assay (MSI1 RRM1 [1]) | solubility [2] | cellular MSI2 protein levels (MSI2 [3]) | MSI2 purified with reporter mRNA (anti-FLAG pulldown) (MSI2 [6]) | total amount of MSI2 in cells (MSI2 [6]) | amount of Luc mRNA in cells (qPCR) (MSI2 [6]) | change of the protein's melting temperature (MSI1 RRM1 [7]) | other results |
| --- | --- | --- | --- | --- | --- | --- | --- | --- |
| Nc1nc(COC(=O)c2cncc(Br)c2)nc2ccccc12 [R12] | showed inhibition | low solubility |  |  |  |  |  |  |
| Cc1cc2nc3c(=O)[nH]c(=O)nc-3n(C)c2cc1C=O [Ro 08–2750, reference compound] |  |  | unchanged | much less MSI2 is purified | unaffected | unchanged |  | cell viability (CellTiter-Blue) (PC9 cells [4]): dramatically diminishes cell viability; cell proliferation (clonogenic assay) (PC9 cells [5]): dramatically diminishes cell viability; inhibition of RNA-binding activity of MSI1/MSI2 (MSI1/MSI2): inhibit the RNA-binding activity of MSI1/MSI2 in vitro; disease burden (leukemia/lymphoma models): reduce disease burden |
| COc1ccc(C(=O)OCc2nc(N)c3ccccc3n2)c(N)c1 [R12–8] | superior inhibition and solubility than R12 | superior inhibition and solubility than R12 |  |  |  |  | monotonically increasing stabilization with increasing dose |  |
| COc1ccc(C(=O)OCc2nc(N)c3c(C)c(C)sc3n2)c(N)c1 [R12–8–44] |  |  |  |  |  |  | monotonically-increasing melting temperature with increasing ligand concentration | improvement in potency over parent compound (MSI1 RRM1 [1]; FP assay, MSI1 RRM1): more than ten-fold improvement in potency |
| Cc1sc2nc(COC(=O)c3cccc(Cl)c3Cl)nc(N)c2c1C [R12-neg] | inactive |  | unchanged | does not disrupt MSI2 pulldown | unaffected | unchanged |  |  |
